The text below walks through data of patent US20220202805A1, “REBAMIPIDE FOR USE IN PREVENTION AND/OR TREATMENT OF SYNUCLEINOPATHIES” (SQUARE POWER LTD., priority 2019, published 2022).

The assay deals with β-sitosterol β-D-glucoside (BSSG) model. The assay can be described thus: BSSG-induced Parkinson's disease model in rats, 10-month study. It is filed as in vivo, Male Sprague Dawley rats. The text has this:
Increased intestinal permeability may lead to a leakage of various substances (such as bacterial toxins and xenobiotics), that are normally unable to cross the gut wall, from the intestine into the body proper, which may trigger synthesis of misfolded alpha-synuclein in the enteric wall and its transfer to the brain via n. vagus. The increased intestinal permeability is a typical consequence of epithelial dysfunction caused by all sorts of enteric inflammation. Therefore, induction of the inflammatory process may be used for setting of disease models. […] When fed to rodents, cycad flour triggers a progressive development of neurological deficits, with behavioral and cellular features that closely approximate those observed in patients. Besides neurotoxic properties, BSSG directly interacts with epithelium. It loosens tight junctions in mucosa via increase of intracellular calcium levels and thus increases permeability of epithelium.
Male Sprague Dawley rats were used in a study performed during 10 months. The animals were put on the baseline diet consisting of BSSG, 3 mg/day, 5 doses weekly p.o. in Month 1 to Month 4. […]
The observed parameters: • 1. Quantitative analysis of misfolded α-synuclein in substantia nigra lysate • 2. Quantitative analysis of misfolded α-synuclein in intestinal lysate • 3. Quantitative analysis of misfolded α-synuclein in olfactory bulb lysate • 4. […]
Final analysis at Month 10 to investigate neurodegenerative disease progression: after in vivo tests (locomotion, coordination, and cognitive) a subgroup of animals in each experimental group is sacrificed. […] In addition inflammatory markers such as TNF-α, IL-6, etc. in brain section samples and serum are measured.
In order to evaluate the overall efficacy of rebamipide in Parkinson's disease a Cumulative PD Score was calculated. […]

Each structure is given as a SMILES string.

In the case of `O=C(NC(Cc1cc(=O)[nH]c2ccccc12)C(=O)O)c1ccc(Cl)cc1` (stereo not drawn) [Rebamipide, 2-[(4-chlorobenzoyl)amino]-3-(2-oxo-1H-quinolin-4-yl)propanoic acid], the “alpha-synuclein aggregates in comparison with the placebo group” value (rebamipide 30 or 200 mg/kg/day p.o. in feed, BSSG 3 mg/day, histological analysis, preliminary results) was “reduced”. Also, the “parameters tested including functional tests” value (rebamipide 30 or 200 mg/kg/day p.o. in feed, BSSG 3 mg/day, vs placebo, preliminary results) is “significant improvement”. For the same compound, the “Cumulative PD score, better as compared to the placebo group” value (weighted score of α-synuclein, functional, permeability, inflammatory, olfactory, retinal tests and mortality, rebamipide treated group vs placebo) is reported as “more than 20%”.
